US8759340B2, “Benzodiazepinone compounds useful in the treatment of skin conditions” (The Regents of the University of Michigan, priority 2007, dated 2014)

Columns and labels:
Type in all cases: cell-based
[1] = test system: human foreskin fibroblasts (HFF); experiment: Fibroblast proliferation assay; conditions: HFF, day 2; for inhibition at 1 µM / inhibition at 0.05 µM / inhibition at 0.1 µM / inhibition at 0.5 µM / inhibition at 5 µM / inhibition at 10 µM: Homo sapiens, 48 h, read-out: Percent Inhibition of Cells Per Concentration of Test Compound; for inhibition at 0.05 µM / inhibition at 0.1 µM / inhibition at 0.5 µM / inhibition at 5 µM / inhibition at 10 µM: Fibroblast
Experimental: Fibroblasts obtained from the same tissue were grown in monolayer culture using Dulbecco's modified minimal essential medium supplemented with nonessential amino acids and 10% fetal bovine serum (DMEM-FBS) as culture medium. Both keratinocytes and fibroblasts were maintained at 37° C. in an atmosphere of 95% air and 5% CO2. Cells were subcultured by exposure to trypsin/ethylenediamine tetraacetic acid (EDTA) and used at passage 2-4.
(§1) Keratinocyte proliferation was assessed by seeding 4×10^4 cells per well in a 24-well plate using KGM as culture medium. After the cells had attached (overnight), they were washed and triplicate samples were harvested for zero-time counts. DMSO served as a negative control. Proliferation was measured on day 2 by releasing the cells with trypsin/EDTA and enumerating them using a particle counter (Coulter Electronics, Hialeah, Fla.). Fibroblast proliferation studies were conducted in a similar manner except that […] was used as culture medium.
(§2) KC refers to human keratinocytes. HFF refers to human foreskin fibroblasts. The cLogP values were calculated using ChemDraw™ (CambridgeSoft).

[2] = test system: human keratinocytes (KC); experiment: Keratinocyte proliferation assay; conditions: KC, day 2; for inhibition at 0.05 µM / inhibition at 0.1 µM / inhibition at 0.5 µM / inhibition at 1 µM / inhibition at 5 µM / inhibition at 10 µM: Homo sapiens, Keratinocyte, 48 h, read-out: Percent Inhibition of Cells Per Concentration of Test Compound
Experimental: Epidermal keratinocytes were isolated from fresh tissue biopsies as described previously (Varani et al., (1994) J. Clin. Invest. 94:1747-1753). Primary and early passage cells were maintained in Keratinocyte Growth Medium (KGM) (Lonza). KGM contains the same basal medium as KBM but is further supplemented with a mixture of growth factors including 0.1 ng per mL EGF, 0.5 μg per mL insulin, and 0.4% bovine pituitary extract. In addition to using low-passage keratinocytes, we also used the HaCat line of immortalized human epidermal keratinocytes in some experiments. The immortalized keratinocytes were handled exactly as low-passage keratinocytes.
as §1, §2

[3] = test system: RA-induced epidermal hyperplasia; experiment: Inhibition of RA-induced epidermal hyperplasia in human skin organ cultures; conditions: exposed to RA alone; 70-90 μm in the absence of RA
Description: Replicate 6-mm punch biopsies of full-thickness psoriatic plaque skin were obtained from human skin donors with psoriasis. These biopsies were used in the transplant studies. Six-mm punch biopsies of sun-protected (hip) skin from non-psoriatic donors were obtained as controls. In addition, replicate 2-mm full-thickness punch biopsies of sun-protected hip skin were obtained from normal donors for use in organ culture studies.
Immediately upon biopsy, the replicate 2-mm punch biopsies (non-psoriatic skin only) were immersed in culture medium consisting of Keratinocyte Basal Medium (KBM) (Lonza, Walkersville, Md.). KBM is a low-Ca^2+, serum-free modification of MCDB-153 medium. It was supplemented with CaCl2 to bring the final Ca^2+ concentration to 1.4 mM. Biopsies were incubated in wells of a 24-well dish containing 400 μl of Ca^2+-supplemented KBM with or without additional treatments (RA and/or Compound H). Cultures were incubated at 37° C. in an atmosphere of 95% air and 5% CO2. Other than to maintain the tissue in a minimal volume of medium, nothing further was done to ensure a strict air-liquid interface. Incubation was for 8 days, with change of medium and fresh treatments provided every second day. At the end of the incubation period, tissue was fixed in 10% buffered formalin and examined histologically after staining with hematoxylin and eosin. Routinely, 3-6 tissue sections were prepared from each block. Epidermal thickness measurements were made at several sites in each tissue section (distance from the dermal-epidermal juncture to the top of the viable portion of the epithelium). The organ culture procedure employed here has been described in the past (Varani et al. (1993) Amer. J. Pathol. 142:189-198; and Varani et al., (1994) J. Clin. Invest. 94:1747-1753). In order to evaluate the toxicity of compound H, tissue was examined histologically and necrosis was assessed on a 0 to 4+ scale, with 0 indicating no change from control and 4+ indicating complete necrosis of the epidermis (n=6). Scores ≦1 were taken as normal.
The average epidermal thickness in the absence of RA was 70-90 μm, while the average epidermal thickness was 275 μm in cells exposed to RA.

Row | Structure (SMILES) | inhibition at 1 µM ([1]; 1 μM) [%] | inhibition at 0.05 µM ([1]; 0.05 μM) [%] | inhibition at 0.1 µM ([1]; 0.1 μM) [%] | inhibition at 0.5 µM ([1]; 0.5 μM) [%] | inhibition at 5 µM ([1]; 5 μM) [%] | inhibition at 10 µM ([1]; 10 μM) [%] | inhibition at 0.05 µM ([2]; 0.05 μM) [%] | inhibition at 0.1 µM ([2]; 0.1 μM) [%] | inhibition at 0.5 µM ([2]; 0.5 μM) [%] | inhibition at 1 µM ([2]; 1 μM) [%] | inhibition at 5 µM ([2]; 5 μM) [%] | inhibition at 10 µM ([2]; 10 μM) [%] | further results
1 | Cc1cc(C)cc(CC2N=C(c3ccc(O)cc3)c3cc(Cl)ccc3N(C)C2=O)c1 (stereo not shown) [Compound 2, (Z)-3-(3,5-Dimethylbenzyl)-7-chloro-5-(4-hydroxyphenyl)-1-methyl-1H-benzo[e][1,4]diazepin-2(3H)-one] | < 20 | < 20 | < 20 | < 20 | ≥ 90 | ≥ 90 | < 20 | < 20 | ≥ 20 | ≥ 20 | ≥ 90 | ≥ 90 | –
2 | CCc1cccc(CC)c1CC1N=C(c2ccc(O)cc2)c2cc(Cl)ccc2NC1=O (stereo not shown) [Compound 3, (Z)-3-(2,6-Diethylbenzyl)-7-chloro-5-(4-hydroxyphenyl)-1H-benzo[e][1,4]diazepin-2(3H)-one] | < 20 | < 20 | < 20 | < 20 | ≥ 90 | ≥ 90 | < 20 | < 20 | < 20 | ≥ 20 | ≥ 90 | ≥ 90 | –
3 | CCc1ccc(CC2N=C(c3ccc(O)cc3)c3cc(Cl)ccc3N(C)C2=O)cc1CC (stereo not shown) [Compound 4, (Z)-3-(3,4-Diethylbenzyl)-7-chloro-5-(4-hydroxyphenyl)-1-methyl-11H-benzo[e][1,4]diazepin-2(3H)-one] | – | – | – | – | – | – | – | – | – | – | – | – | Percent Inhibition of Cells Per Concentration of Test Compound ([1]; 0.05 μM): <20%; Percent Inhibition of Cells Per Concentration of Test Compound ([1]; 0.1 μM): <20%; Percent Inhibition of Cells Per Concentration of Test Compound ([1]; 0.5 μM): <20%; Percent Inhibition of Cells Per Concentration of Test Compound ([1]; 1 μM): <20%; Percent Inhibition of Cells Per Concentration of Test Compound ([1]; 5 μM): ≧90%; Percent Inhibition of Cells Per Concentration of Test Compound ([1]; 10 μM): ≧90%; Percent Inhibition of Cells Per Concentration of Test Compound ([2]; 0.05 μM): <20%; Percent Inhibition of Cells Per Concentration of Test Compound ([2]; 0.1 μM): <20%; Percent Inhibition of Cells Per Concentration of Test Compound ([2]; 0.5 μM): <20%; Percent Inhibition of Cells Per Concentration of Test Compound ([2]; 1 μM): ≧20%; Percent Inhibition of Cells Per Concentration of Test Compound ([2]; 5 μM): ≧90%; Percent Inhibition of Cells Per Concentration of Test Compound ([2]; 10 μM): ≧90%
4 | CCc1cc(CC)cc(CC2N=C(c3ccc(O)cc3)c3cc(Cl)ccc3NC2=O)c1 (stereo not shown) [Compound 5, (Z)-3-(3,5-Diethylbenzyl)-7-chloro-5-(4-hydroxyphenyl)-1H-benzo[e][1,4]diazepin-2(3H)-one] | < 20 | < 20 | < 20 | < 20 | ≥ 90 | ≥ 90 | < 20 | < 20 | ≥ 20 | ≥ 20 | ≥ 90 | ≥ 90 | –
5 | CCc1cc(CC)cc(CC2N=C(c3ccc(O)cc3)c3cc(Cl)ccc3N(C)C2=O)c1 (stereo not shown) [Compound 6, (Z)-3-(3,5-Diethylbenzyl)-7-chloro-5-(4-hydroxyphenyl)-1-methyl-1H-benzo[e][1,4]diazepin-2(3H)-one] | < 20 | < 20 | < 20 | < 20 | ≥ 90 | ≥ 90 | < 20 | < 20 | < 20 | < 20 | ≥ 90 | ≥ 90 | –
6 | CC(C)c1ccc(CC2N=C(c3ccc(O)cc3)c3cc(Cl)ccc3NC2=O)cc1 (stereo not shown) [Compound 7, (Z)-3-(4-Isopropylbenzyl)-7-chloro-5-(4-hydroxyphenyl)-1H-benzo[e][1,4]diazepin-2(3H)-one] | ≥ 20 | < 20 | < 20 | < 20 | ≥ 90 | ≥ 90 | < 20 | < 20 | < 20 | ≥ 20 | ≥ 90 | ≥ 90 | –
7 | CC(C)c1ccc(CC2N=C(c3ccc(O)cc3)c3cc(Cl)ccc3N(C)C2=O)cc1 (stereo not shown) [Compound 8, (Z)-3-(4-Isopropylbenzyl)-7-chloro-5-(4-hydroxyphenyl)-1-methyl-1H-benzo[e][1,4]diazepin-2(3H)-one] | < 20 | < 20 | < 20 | < 20 | ≥ 90 | ≥ 90 | < 20 | < 20 | ≥ 20 | ≥ 20 | ≥ 90 | ≥ 90 | –
8 | CC(C)c1ccc(C(C)C)c(CC2N=C(c3ccc(O)cc3)c3cc(Cl)ccc3NC2=O)c1 (stereo not shown) [Compound 9, (Z)-3-(2,5-Diisopropylbenzyl)-7-chloro-5-(4-hydroxyphenyl)-1H-benzo[e][1,4]diazepin-2(3H)-one] | < 20 | < 20 | < 20 | < 20 | ≥ 90 | ≥ 90 | < 20 | < 20 | ≥ 20 | ≥ 20 | ≥ 90 | ≥ 90 | –
9 | CC(C)c1ccc(C(C)C)c(CC2N=C(c3ccc(O)cc3)c3cc(Cl)ccc3N(C)C2=O)c1 (stereo not shown) [Compound 10, (Z)-3-(2,5-Diisopropylbenzyl)-7-chloro-5-(4-hydroxyphenyl)-1-methyl-1H-benzo[e][1,4]diazepin-2(3H)-one] | < 20 | < 20 | < 20 | < 20 | ≥ 90 | ≥ 90 | < 20 | < 20 | < 20 | ≥ 20 | ≥ 90 | ≥ 90 | –
10 | CC1=C(/C=C/C(C)=C/C=C/C(C)=C/C(=O)O)C(C)(C)CCC1 [RA, all-trans retinoic acid, reference compound] | – | – | – | – | – | – | – | – | – | – | – | – | average epidermal thickness [3]: 275 μm
